Data published in article PMC12467033, “Exploring the Inhibitory Potential of Six Porphyrin Compounds Against α-Amylase and α-Glucosidase Linked to Diabetes” (Biomolecules, 2025).

Columns and labels:
α-amylase [1] = target: T1, α-amylase (Sus scrofa, UniProt P00690); experiment: α-Amylase inhibitory activity assay (Gal-G2-α-CNP substrate); format: biochemical; conditions: 37 °C, pH 6.8
T1 sequence (P00690 16-511): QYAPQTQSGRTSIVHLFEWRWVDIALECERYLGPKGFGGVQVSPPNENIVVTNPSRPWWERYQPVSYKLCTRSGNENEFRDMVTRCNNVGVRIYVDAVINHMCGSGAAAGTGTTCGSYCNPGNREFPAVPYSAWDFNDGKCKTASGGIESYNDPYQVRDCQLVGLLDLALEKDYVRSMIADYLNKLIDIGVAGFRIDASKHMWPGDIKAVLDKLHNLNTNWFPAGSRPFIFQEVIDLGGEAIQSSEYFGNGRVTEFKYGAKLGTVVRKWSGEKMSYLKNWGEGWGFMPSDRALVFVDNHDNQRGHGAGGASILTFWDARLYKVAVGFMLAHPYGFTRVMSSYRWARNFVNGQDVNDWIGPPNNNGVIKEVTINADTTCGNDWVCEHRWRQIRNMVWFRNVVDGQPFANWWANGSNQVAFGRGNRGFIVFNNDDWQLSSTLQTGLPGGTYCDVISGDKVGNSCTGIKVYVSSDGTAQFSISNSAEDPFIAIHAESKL
Protocol: The inhibitory activity detection process was slightly modified, with reference as the base method from the literature. […] After thorough mixing, the samples were pre-incubated at 37 °C for 10 min. Subsequently, 100 μL of 5 mmol/L Gal-G2-α-CNP substrate was added to each sample. Following a 3 min reaction period, the absorbance of the solutions at 405 nm was measured using a microplate reader. The inhibition rate (%) was calculated based on the absorbance readings according to Formula (1).(1) inhibition rate%=(1−(A1−A2)/(A3−A4))×100
In the formula, A1 represents the sample group; A2 represents the sample control group (where the enzyme was replaced with phosphate buffer); A3 represents the blank control group; and A4 represents the reagent blank control group (containing blank sample solution and phosphate buffer).
(§1) Using the enzyme inhibition rate as the y-axis and the inhibitor concentration as the x-axis, the IC50 value was calculated through linear regression fitting with GraphPad Prism software (5.0).

α-glucosidase [2] = target: T2, α-glucosidase (Saccharomyces cerevisiae, UniProt P53341); experiment: α-Glucosidase inhibitory activity assay (pNPG substrate); format: biochemical; conditions: 37 °C
Protocol: The experimental groups were supplemented with different concentrations of porphyrin compounds, followed by the addition of 100 μL of 5 mmol/L pNPG. After thorough mixing, the samples were pre-incubated at 37 °C for 10 min. Subsequently, the reaction was terminated by adding 0.1 mol/L of sodium carbonate (Na2CO3) solution. Following a 3 min reaction period, the absorbance of the solutions at 405 nm was measured using a microplate reader. The inhibition rate (%) was subsequently calculated using Formula (1).
as §1

α-amylase [3] = target: T1, α-amylase; experiment: Mode of α-AMY inhibition (reversibility, Lineweaver–Burk kinetics); format: biochemical
Excerpt: In the experiment, the concentration of the fixed substrate Gal-G2-α-CNP/pNPG solution was 5 mmol/L, and the concentrations of the two enzymes (100, 200, 300, 400 U/L) were used to determine the effect of different concentrations of porphyrins on enzyme activity. The concentration of the enzyme was 200 U/L, and the concentration of the substrate Gal-G2-α-CNP/pNPG solution (2.5, 5, 7.5, 10 mmol/L) was used to determine the effect of different concentrations of porphyrins on the enzyme-catalyzed substrate activity.
Upon identifying the type of inhibition, the kinetic equations vary for different inhibition types.
In the formula, v, Vmax, Km, Ki, and Kis represent the reaction rate, maximum reaction rate, Michaelis constant, and free enzyme inhibition constant, respectively, and the binding enzyme inhibition constant. [S] denotes the substrate concentration. [I] denotes the inhibitor concentration.

α-amylase [4] = target: T1, α-amylase; experiment: In vitro stability study (temperature, pH), inhibition rate against α-amylase; format: physicochemical; conditions: water bath 30–100 °C, 20 min
Protocol: (§2) Samples of a certain mass concentration were subjected to a water bath at different temperatures (30, 40, 50, 60, 70, 80, 90, 100 °C) for 20 min and treated under different pH conditions (2.0, 3.0, 4.0, 5.0, 6.0, 7.0, 8.0, 9.0, and 10.0) for 20 min to determine the effect of temperature and pH on the stability of the two enzymes.

α-glucosidase [5] = target: T2, α-glucosidase; experiment: In vitro stability study (temperature, pH), inhibition rate against α-glucosidase; format: physicochemical; conditions: water bath 30–100 °C, 20 min
Protocol: as §2

α-amylase [6] = target: T1, α-amylase; experiment: Three-dimensional fluorescence spectroscopy of α-amylase complexes; conditions: 298 K; TAPP 2.5, THPP 10, TCPP 10, Fe–TCPP 12.5, Ni–TCPP 17.5, Cu–TCPP 10 μg/mL
Protocol: At 298 K, with excitation wavelengths ranging from 200 to 600 nm (2 nm increments) and emission wavelengths from 200 to 600 nm, the influence of small molecules on enzyme conformation was assessed by examining peaks in 3D fluorescence spectra [41].

HepG2 cells = experiment: MTT cytotoxicity assay; format: cell-based, human; conditions: HepG2, 50–200 μg/mL, 24 h
Protocol: The cytotoxicity of six porphyrin compounds against human hepatocellular carcinoma HepG2 cells was evaluated using the MTT assay. HepG2 cells were seeded into 96-well plates at a density of 5000 cells per well and cultured for 24 h at 37 °C in a 5% CO2 incubator. Then, 100 µL of sample solutions at various concentrations (50, 100, and 200 µg/mL) was added to the experimental wells, with blank control wells and solvent control wells also included. The cells were further incubated for 24 h. After incubation, 10 µL of MTT solution (5 mg/mL) was added to each well, and the plates were incubated for another 4 h. Subsequently, 100 µL of Formazan solubilization solution was added to each well, followed by gentle mixing. The plates were returned to the incubator and maintained until complete dissolution of Formazan crystals was observed under a microscope. The absorbance at 570 nm was measured using a microplate reader (Meigu Molecular Instrument Company, Shanghai, China), and the survival rate of HepG2 cells was calculated.(12) Cell viability=As-Ab/Ac-Ab×100%
In the formula, As represents the absorbance of the sample well, Ac denotes the absorbance of the blank control well (without the drug), and Ab refers to the absorbance of the solvent control well (devoid of both cells and the drug).

T2 sequence (P53341 whole entry): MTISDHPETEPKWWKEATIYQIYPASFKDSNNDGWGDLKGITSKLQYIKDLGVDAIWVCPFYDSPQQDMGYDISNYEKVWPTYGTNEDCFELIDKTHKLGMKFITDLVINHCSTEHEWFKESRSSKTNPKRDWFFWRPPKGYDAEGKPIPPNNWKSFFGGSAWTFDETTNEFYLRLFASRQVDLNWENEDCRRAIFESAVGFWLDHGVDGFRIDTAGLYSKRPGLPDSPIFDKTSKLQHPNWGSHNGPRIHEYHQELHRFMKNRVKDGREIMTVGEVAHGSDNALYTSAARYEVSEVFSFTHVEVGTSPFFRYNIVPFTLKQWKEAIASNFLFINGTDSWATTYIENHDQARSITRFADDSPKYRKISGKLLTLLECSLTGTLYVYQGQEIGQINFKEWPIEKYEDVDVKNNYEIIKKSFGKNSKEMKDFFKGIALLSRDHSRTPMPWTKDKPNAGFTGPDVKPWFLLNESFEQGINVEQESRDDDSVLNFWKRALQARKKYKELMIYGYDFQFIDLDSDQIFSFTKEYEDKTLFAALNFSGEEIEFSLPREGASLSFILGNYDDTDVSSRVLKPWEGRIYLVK

For `O=C(O)c1ccc(-c2c3nc(c(-c4ccc(C(=O)O)cc4)c4ccc([nH]4)c(-c4ccc(C(=O)O)cc4)c4nc(c(-c5ccc(C(=O)O)cc5)c5ccc2[nH]5)C=C4)C=C3)cc1.[Ni+2]` [Ni–TCPP, nickel (II) meso-tetra (4-carboxyphenyl) porphine], the “IC50 α-amylase” value (α-amylase [1]) was 156.26 ± 0.48 µg/mL, the “IC50 α-GLU” value (α-glucosidase [2]) was 6.58 ± 0.21 µg/mL and the Km (α-amylase [3]; C 40 μg/mL) was 3.6229 ± 0.1082 µg/mL. For the same molecule, the Vmax (α-amylase [3]; C 40 μg/mL) was 0.1456 ± 0.0043 ΔOD/min, the Km (α-amylase [3]; C 80 μg/mL) was 3.6134 ± 0.1167 µg/mL and the Vmax (α-amylase [3]; C 80 μg/mL) was 0.1238 ± 0.0040 ΔOD/min. For the same molecule, the Km (α-amylase [3]; C 120 μg/mL) was 3.6072 ± 0.0593 µg/mL, the Vmax (α-amylase [3]; C 120 μg/mL) was 0.1032 ± 0.0017 ΔOD/min and the Km (α-amylase [3]; C 160 μg/mL) was 3.6027 ± 0.1141 µg/mL. For the same molecule, the Vmax (α-amylase [3]; C 160 μg/mL) was 0.0901 ± 0.0029 ΔOD/min, the Km (α-amylase [3]; C 200 μg/mL) was 3.5987 ± 0.0938 µg/mL and the Vmax (α-amylase [3]; C 200 μg/mL) was 0.0799 ± 0.0021 ΔOD/min. The “type of inhibition of α-amylase” value (α-amylase [3]; Lineweaver–Burk plots) was “non-competitive inhibition”, the “reversibility of inhibition of α-amylase” value (α-amylase [3]; enzyme 100–400 U/L, substrate 5 mmol/L) was “reversible inhibition” and the Ki (α-amylase [3]; free enzyme inhibition constant) was 157.9542 ± 0.1375 µg/mL. The “thermal stability: inhibition rate against α-amylase” value (α-amylase [4]) was “small fluctuations”, the “thermal stability: inhibition rate against α-glucosidase” value (α-glucosidase [5]) was “remained relatively stable” and the “Peak 1 Fluorescence Intensity” value (α-amylase [6]) was 225.2. The “Peak 2 Fluorescence Intensity” value (α-amylase [6]) was 9.012 and the cell viability (HepG2 cells) was “above 88%”.
